Results as given in PubChem BioAssay (NCI).
Several values for one entry are separate records, joined by “and”; a condition that tells them apart may be missing. Equal values may be shown once.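 Dose response: 5 concentrations. Exposure: 48 h. Format: 96-well plates. Endpoint: linear interpolation; highest concentration if not reached. GI50 marks 50% less growth. TGI: concentration producing complete growth inhibition.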

Key:
Experiment in all cases: NCI tumour cell line growth inhibition, 48 h
786-0 renal = test system: 786-0 renal
A498 renal = test system: A498 renal
A549 NSCLC = test system: A549 NSCLC
ACHN renal = test system: ACHN renal
BT-549 breast = test system: BT-549 breast
CAKI-1 renal = test system: CAKI-1 renal
CCRF-CEM leukemia = test system: CCRF-CEM leukemia
COLO 205 colon = test system: COLO 205 colon
DU-145 prostate = test system: DU-145 prostate
EKVX NSCLC = test system: EKVX NSCLC
HCC-2998 colon = test system: HCC-2998 colon
HCT-116 colon = test system: HCT-116 colon
HCT-15 colon = test system: HCT-15 colon
HL-60(TB) leukemia = test system: HL-60(TB) leukemia
HOP-62 NSCLC = test system: HOP-62 NSCLC
HOP-92 NSCLC = test system: HOP-92 NSCLC
HS 578T breast = test system: HS 578T breast
HT29 colon = test system: HT29 colon
IGROV1 ovarian = test system: IGROV1 ovarian
K-562 leukemia = test system: K-562 leukemia
KM12 colon = test system: KM12 colon
LOX IMVI melanoma = test system: LOX IMVI melanoma
M14 melanoma = test system: M14 melanoma
MCF7 breast = test system: MCF7 breast
MDA-MB-231 breast = test system: MDA-MB-231 breast
MDA-MB-435 = test system: MDA-MB-435
MOLT-4 leukemia = test system: MOLT-4 leukemia
NCI-H226 lung = test system: NCI-H226 lung
NCI-H23 lung = test system: NCI-H23 lung
NCI-H460 lung = test system: NCI-H460 lung
NCI-H522 lung = test system: NCI-H522 lung
NCI/ADR-RES ovarian = test system: NCI/ADR-RES ovarian
OVCAR-3 ovarian = test system: OVCAR-3 ovarian
OVCAR-4 ovarian = test system: OVCAR-4 ovarian
OVCAR-5 ovarian = test system: OVCAR-5 ovarian
OVCAR-8 ovarian = test system: OVCAR-8 ovarian
PC-3 prostate = test system: PC-3 prostate
RXF 393 renal = test system: RXF 393 renal
SF-268 CNS = test system: SF-268 CNS
SF-295 CNS = test system: SF-295 CNS
SF-539 CNS = test system: SF-539 CNS
SK-MEL-2 melanoma = test system: SK-MEL-2 melanoma
SK-MEL-28 melanoma = test system: SK-MEL-28 melanoma
SK-MEL-5 melanoma = test system: SK-MEL-5 melanoma
SK-OV-3 ovarian = test system: SK-OV-3 ovarian
SN12C renal = test system: SN12C renal
SNB-19 CNS = test system: SNB-19 CNS
SW-620 colon = test system: SW-620 colon
T-47D breast = test system: T-47D breast
TK-10 renal = test system: TK-10 renal
U251 CNS = test system: U251 CNS
UACC-257 melanoma = test system: UACC-257 melanoma
UACC-62 melanoma = test system: UACC-62 melanoma
UO-31 renal = test system: UO-31 renal
MALME-3M melanoma = test system: MALME-3M melanoma
RPMI-8226 leukemia = test system: RPMI-8226 leukemia
SNB-75 CNS = test system: SNB-75 CNS

## CC1=NN(C2=NS(=O)(=O)c3ccccc3N2C)C(=O)C1
786-0 renal
  TGI: > 100 µM
A498 renal
  TGI: > 100 µM
A549 NSCLC
  TGI: > 100 µM
ACHN renal
  TGI: > 100 µM
BT-549 breast
  TGI: > 100 µM
CAKI-1 renal
  TGI: > 100 µM
CCRF-CEM leukemia
  TGI: > 100 µM
COLO 205 colon
  TGI: > 100 µM
DU-145 prostate
  TGI: > 100 µM
EKVX NSCLC
  TGI: > 100 µM
HCC-2998 colon
  TGI: > 100 µM
HCT-116 colon
  TGI: > 100 µM
HCT-15 colon
  TGI: > 100 µM
HL-60(TB) leukemia
  TGI: > 100 µM
HOP-62 NSCLC
  TGI: > 100 µM
HOP-92 NSCLC
  TGI: > 100 µM
HS 578T breast
  TGI: > 100 µM
HT29 colon
  TGI: > 100 µM
IGROV1 ovarian
  TGI: > 100 µM
K-562 leukemia
  TGI: > 100 µM
KM12 colon
  TGI: > 100 µM
LOX IMVI melanoma
  TGI: > 100 µM
M14 melanoma
  TGI: > 100 µM
MCF7 breast
  TGI: > 100 µM
MDA-MB-231 breast
  TGI: > 100 µM
MDA-MB-435
  TGI: > 100 µM
MOLT-4 leukemia
  TGI: > 100 µM
NCI-H226 lung
  TGI: > 100 µM
NCI-H23 lung
  TGI: > 100 µM
NCI-H460 lung
  TGI: > 100 µM
NCI-H522 lung
  TGI: > 100 µM
NCI/ADR-RES ovarian
  TGI: > 100 µM
OVCAR-3 ovarian
  TGI: > 100 µM
OVCAR-4 ovarian
  TGI: > 100 µM
OVCAR-5 ovarian
  TGI: > 100 µM
OVCAR-8 ovarian
  TGI: > 100 µM
PC-3 prostate
  TGI: > 100 µM
RXF 393 renal
  TGI: > 100 µM
SF-268 CNS
  TGI: > 100 µM
SF-295 CNS
  TGI: > 100 µM
SF-539 CNS
  TGI: > 100 µM
SK-MEL-2 melanoma
  TGI: > 100 µM
SK-MEL-28 melanoma
  TGI: > 100 µM
SK-MEL-5 melanoma
  TGI: > 100 µM
SK-OV-3 ovarian
  TGI: > 100 µM
SN12C renal
  TGI: > 100 µM
SNB-19 CNS
  TGI: > 100 µM
SW-620 colon
  TGI: > 100 µM
T-47D breast
  TGI: > 100 µM
TK-10 renal
  TGI: > 100 µM
U251 CNS
  TGI: > 100 µM
UACC-257 melanoma
  TGI: > 100 µM
UACC-62 melanoma
  TGI: > 100 µM
UO-31 renal
  TGI: > 100 µM

## CCN(CC)CCNc1ccc(C)c2sc3ccccc3c(=O)c12 (tested in a mixture with another compound)
786-0 renal
  GI50: 1.79 µM
  TGI: 4.83 µM and 11.4 µM
A498 renal
  GI50: 1.83 µM
  TGI: 4.11 µM and 7.09 µM
A549 NSCLC
  GI50: 1.63 µM
  TGI: 3.24 µM and 8.53 µM
ACHN renal
  GI50: 2.34 µM and 2.2 µM
  TGI: 5.47 µM and 5.97 µM
BT-549 breast
  GI50: 6.4 µM
  TGI: 16.3 µM and 21.4 µM
CAKI-1 renal
  GI50: 1.38 µM and 0.694 µM
  TGI: 4.5 µM and 6.47 µM
CCRF-CEM leukemia
  GI50: 2.84 µM and 3.05 µM
  TGI: 8.82 µM and 10.6 µM
COLO 205 colon
  TGI: 3 µM and 3.1 µM
DU-145 prostate
  GI50: 2.58 µM and 3.08 µM
  TGI: 9.14 µM and 8.92 µM
EKVX NSCLC
  GI50: 5.1 µM and 4.96 µM
  TGI: 19.7 µM and 19.5 µM
HCC-2998 colon
  GI50: 1.55 µM and 1.94 µM
  TGI: 3.03 µM and 4.51 µM
HCT-116 colon
  GI50: 1.5 µM
  TGI: 2.9 µM and 3.62 µM
HCT-15 colon
  TGI: 11.1 µM and 9.1 µM
HL-60(TB) leukemia
  GI50: 2.41 µM
  TGI: 3.72 µM and 7.76 µM
HOP-62 NSCLC
  GI50: 1.54 µM and 2.07 µM
  TGI: 3.12 µM and 5.88 µM
HOP-92 NSCLC
  GI50: 1.34 µM and 1.76 µM
  TGI: 6.77 µM and 8.86 µM
HS 578T breast
  GI50: 1.91 µM and 1.78 µM
  TGI: 4.75 µM and 5 µM
HT29 colon
  TGI: 3.79 µM
IGROV1 ovarian
  GI50: 1.54 µM and 2.75 µM
  TGI: 3.1 µM and 9.38 µM
K-562 leukemia
  TGI: 3.92 µM and 4.27 µM
KM12 colon
  TGI: 9.82 µM and 11.6 µM
LOX IMVI melanoma
  GI50: 1.86 µM and 1.7 µM
  TGI: 3.88 µM and 3.81 µM
M14 melanoma
  TGI: 3.05 µM and 3.14 µM
MALME-3M melanoma
  GI50: 1.65 µM and 1.71 µM
  TGI: 3.46 µM and 3.45 µM
MCF7 breast
  GI50: 1.81 µM and 1.75 µM
  TGI: 3.85 µM and 3.73 µM
MDA-MB-231 breast
  GI50: 1.72 µM and 1.83 µM
  TGI: 3.56 µM and 3.98 µM
MDA-MB-435
  TGI: 4.13 µM and 4.21 µM
MOLT-4 leukemia
  GI50: 2.55 µM and 2.57 µM
  TGI: 6.33 µM and 6.48 µM
NCI-H226 lung
  GI50: 1.62 µM and 2.27 µM
  TGI: 3.25 µM and 5.09 µM
NCI-H23 lung
  GI50: 2.32 µM
  TGI: 6.01 µM and 11.4 µM
NCI-H460 lung
  TGI: 3.81 µM and 3.58 µM
NCI-H522 lung
  GI50: 3.34 µM
  TGI: 13.3 µM
NCI/ADR-RES ovarian
  GI50: 3.21 µM and 3.19 µM
  TGI: 12.2 µM and 13.5 µM
OVCAR-3 ovarian
  GI50: 2.43 µM
  TGI: 6.92 µM and 7.23 µM
OVCAR-4 ovarian
  GI50: 3.91 µM
  TGI: 13.6 µM and 17.3 µM
OVCAR-5 ovarian
  GI50: 1.8 µM and 2.35 µM
  TGI: 3.98 µM and 5.87 µM
OVCAR-8 ovarian
  GI50: 6.63 µM
  TGI: 76.9 µM
PC-3 prostate
  GI50: 2.77 µM
  TGI: 6.63 µM and 12.4 µM
RPMI-8226 leukemia
  TGI: 4.49 µM and 4.35 µM
RXF 393 renal
  TGI: 5.16 µM
SF-268 CNS
  GI50: 3.91 µM and 3.3 µM
  TGI: 14.8 µM and 12.5 µM
SF-295 CNS
  TGI: 5.3 µM and 5.37 µM
SF-539 CNS
  GI50: 1.92 µM and 2.25 µM
  TGI: 4.06 µM and 5.45 µM
SK-MEL-2 melanoma
  TGI: 8.28 µM
SK-MEL-28 melanoma
  TGI: 3.3 µM and 3.27 µM
SK-MEL-5 melanoma
  GI50: 1.54 µM and 1.69 µM
  TGI: 2.98 µM and 3.09 µM
SK-OV-3 ovarian
  GI50: 2.11 µM and 2.91 µM
  TGI: 5.63 µM and 9.21 µM
SN12C renal
  GI50: 4.38 µM
  TGI: 12.7 µM and 18 µM
SNB-19 CNS
  GI50: 3.95 µM
  TGI: 11.4 µM and 15.7 µM
SNB-75 CNS
  TGI: 4.6 µM and 6.21 µM
SW-620 colon
  TGI: 3.46 µM and 3.72 µM
T-47D breast
  GI50: 1.75 µM and 2.29 µM
  TGI: 4.64 µM and 7.22 µM
TK-10 renal
  GI50: 2.73 µM
  TGI: 5.64 µM and 12.2 µM
U251 CNS
  TGI: 6.92 µM and 8.17 µM
UACC-257 melanoma
  GI50: 2.31 µM
  TGI: 4.8 µM
UACC-62 melanoma
  GI50: 1.08 µM
  TGI: 2.49 µM and 3.79 µM
UO-31 renal
  TGI: 3.79 µM
